Measured values from US4510136A (priority 1983, dated 1985).

Tests used:
Helminthosporium maydis = assay: Southern corn leaf blight control on sprayed corn seedlings (Example 83); format: in vivo; settings: Bipolaris maydis, 192 h, 100 ppm spray, day before inoculation
Procedure, shortened: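 Compounds in 6% acetone at 100 ppm in water with 250 ppm TREM 014 surfactant, sprayed to run-off on corn seedlings; next day inoculated with spore suspension. 24 h at saturated humidity and 20°, then 7 days in growth room before disease rating; phytotoxicity scored as growth reduction.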

Pyricularia oryzae = assay: whole plant or invertebrate; format: in vivo; settings: Pyricularia oryzae, 168 h, read-out: % Control of Rice Blast, 100 ppm spray, day before inoculation
Erysiphe cichoracearum = assay: Cucumber powdery mildew control on sprayed cucumber seedlings (Example 80); format: in vivo; settings: Golovinomyces cichoracearum, 168 h, 100 ppm spray, day before inoculation
5 Phytophthora species = format: cell-based; settings: 200.0 ppm in V-8 agar, 22° C., 6 days
Pythium aphanadermatum [1] = assay: Pythium control on corn, seed coating (Example 92); format: in vivo; settings: 504 h, 2 gm/kg seed
Experimental: Several compounds of the previous examples were incorporated into a proprietary formulation and used to coat corn seeds at a rate of 2 gm/kg seed. After being thoroughly coated, the seeds were allowed to air dry at room temperature. The seeds were then planted into soil amended with a mixture of the fungus Pythium aphanadermatum, sand, and corn meal at a rate sufficient to kill most untreated seeds. The seeds were held at 49° F. for 2 weeks and then at 70° F. for 1 additional week. After this time disease ratings were made.

Erysiphe graminis = assay: Barley powdery mildew control on sprayed barley seedlings (Example 81); format: in vivo; settings: Blumeria graminis, 168 h; 100 ppm spray, day before inoculation
Experimental: The compounds of the previous examples were again dissolved in acetone in an amount equal to 6% of the final volume and then suspended at a concentration of 100 ppm in purified water containing 250 ppm of the surfactant TREM 014 (polyhydric alcohol esters). These suspensions were sprayed to the point of run-off on barley seedlings. The following day, the plants were inoculated with a spore suspension of the fungus Erysiphe graminis, causal agent of barley powdery mildew, and incubated in growth room for 7 days. Disease ratings were then made. Treated plants from successful treatments had little or no powdery mildew in contrast to untreated plants which were covered with powdery mildew.

Rhizoctonia solani = assay: Rice sheath blight control on sprayed rice seedlings (Example 87); format: in vivo; settings: Rhizoctonia solani, 168 h, 100 ppm spray, day before inoculation
Procedure, shortened: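 Rice seedlings were sprayed to run-off with 100 ppm compound suspended in water with 6% acetone and 250 ppm TREM 014 surfactant. They were inoculated next day with bran plus R. solani mycelium. Sheath blight was rated after 7 days in a growth room.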

[2] = system: Puccinia recondita var. tritici; assay: Wheat leaf rust control on sprayed wheat seedlings (Example 79); format: in vivo; settings: Puccinia recondita, 168 h; 100 ppm spray, day before inoculation
Procedure, shortened: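 Wheat seedlings were sprayed to run-off with 100 ppm compound suspended in water with 6% acetone and 250 ppm TREM 014 surfactant. Next day they were inoculated with Puccinia recondita var. tritici spores and held 24 h at saturated humidity, 20°. Rust pustules were rated after a further 7 days in a growth room.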

Venturia inaequalis = assay: Apple scab control on sprayed apple seedlings (Example 82); format: in vivo; settings: Venturia inaequalis, 100 ppm spray, day before inoculation
Phytophthora infestans = assay: whole plant or invertebrate; format: in vivo; settings: Phytophthora infestans, in Solanum lycopersicum, 168 h, read-out: % Control of Tomato Late Blight, 100 ppm spray, day before inoculation
Cercospora arachidicola = assay: Peanut early leafspot control on sprayed peanut seedlings (Example 84); format: in vivo; settings: Mycosphaerella arachidis, 360 h, 100 ppm spray, day before inoculation; read-out: % Control Peanut Easly Leafspot
apple seedlings = assay: Phytotoxicity on apple seedlings (Example 82); format: in vivo; design: key: G = growth reduction; H = hormonal effects; settings: 100 ppm spray
Experimental: These suspensions were sprayed to the point of run-off on apple seedlings. The following day, the plants were inoculated with a spore suspension of the fungus Venturia inaequalis, causal agent of apple scab, and incubated in a saturated humidity chamber at 20° for 24 hours and then in a growth room for an additional 10-12 days. Treated plants from successful treatments had fewer apple scab lesions when compared to untreated plants which were covered with scab lesions. Phytotoxicity expressed as growth reduction was observed on some of the plants in association with disease control.

cucumber seedlings = assay: Phytotoxicity on cucumber seedlings (Example 80); format: in vivo; design: key: G = growth reduction; H = hormonal effects; settings: 100 ppm spray
Experimental: The compounds of the previous example were again dissolved in acetone in an amount equal to 6% of the final volume and then suspended at a concentration of 100 ppm in purified water containing 250 ppm of the surfactant TREM 014 (polyhydric alcohol esters). These suspensions were sprayed to the point of run-off, on cucumber seedlings. The following day, the plants were inoculated with a spore suspension of the fungus Erysiphe cichoracearum, causal agent of cucumber powdery mildew, and incubated in a growth room for 7 days. Disease ratings were then made. Treated plants from successful treatments had little or no powdery mildew in contrast to untreated plants which were covered with powdery mildew. Phytotoxicity in the form of growth reduction or hormonal effects was observed on some of the plants in association with disease control.

Pythium aphanadermatum [3] = assay: Pythium control on cotton, seed coating (Example 91); format: in vivo; settings: 168 h; for pest or weed control at 2 g/kg seed: 2 gm/kg seed
Description: Several compounds of the previous examples were incorporated into a proprietary formulation and used to coat cotton seeds at a rate of 2 gm/kg seed. After being thoroughly coated, the seeds were allowed to air dry at room temperature. The cotton seeds were then planted into soil amended with the fungus Pythium aphanadermatum, sand, and corn meal at a rate sufficient to kill most untreated seeds. The seeds were held at room temperature for 1 week, after which time disease ratings were made.

Monilinia fructicola = assay: Stone fruit brown rot control on dipped canned peach halves (Example 86); settings: 120 h, 100 ppm dip, percent growth inhibition of colonies after five days
Description: Several compounds of the previous examples were again dissolved in acetone in an amount equal to 5% of the final volume and then suspended at a concentration of 100 ppm in purified water containing 700 ppm of the surfactant TREM 014 (polyhydric alcohol esters). Canned peach halves were dipped in this suspension for three minutes and then placed to air dry in sterile containers. Upon drying, the peach halves were inoculated with two pieces of Monilinia fructicola mycelium, causal agent of stone fruit brown rot, and incubated in the sterile containers for five days. At that time the radii of the colonies' growth were measured on each peach. […] Percent disease control (percent growth inhibition of colonies on treated peaches as compared to that of colonies on untreated peaches) is expressed in the table below.

SMILES	pest or weed control at 100 ppm (Helminthosporium maydis) [%]	pest or weed control at 100 ppm (Pyricularia oryzae) [%]	pest or weed control at 100 ppm (Erysiphe cichoracearum) [%]	No. of 5 Phytophthora species controlled in vitro (5 Phytophthora species)	pest or weed control at 2 g/kg seed (Pythium aphanadermatum [1]) [%]	pest or weed control at 100 ppm (Erysiphe graminis) [%]	pest or weed control at 100 ppm (Rhizoctonia solani) [%]	pest or weed control at 100 ppm [2] [%]	pest or weed control at 100 ppm (Venturia inaequalis) [%]	pest or weed control at 100 ppm (Phytophthora infestans) [%]	pest or weed control at 100 ppm (Cercospora arachidicola) [%]	Phytotoxicity on apple (apple seedlings)	Phytotoxicity on cucumber (cucumber seedlings)	pest or weed control at 2 g/kg seed (Pythium aphanadermatum [3]) [%]	inhibition of growth at 100 µg/mL (Monilinia fructicola) [%]	pest or weed control at 0.5 g/kg seed (Pythium aphanadermatum [3]; 0.5 gm/kg seed) [%]
C[Si](C)(Cn1cncn1)c1ccc(Cl)c(Cl)c1 [(3,4-Dichlorophenyl)dimethyl(1H-1,2,4-triazol-1-ylmethyl)silane]	90	0	100	2	43	100	80	60	80	0	0					
C[Si](C)(Cn1cncn1)c1ccc(Br)cc1 [(4-Bromophenyl)dimethyl(1H-1,2,4-triazol-1-ylmethyl)silane]	90	0	100					80	90	0	0	G	G			
CCCC[Si](C)(C)Cn1cncn1 [Butyldimethyl(1H-1,2,4-triazol-1-ylmethyl)silane]	0	0	100	1	0			0	0	0	0			0	95	
C[Si](C)(Cn1cncn1)c1cccc2ccccc12 [Dimethyl(1-naphthalenyl)(1H-1,2,4-triazol-1-ylmethyl)silane]	0	70	100		30	0	0	0	50	0	90					
C[Si](C)(Cn1cncn1)c1ccc(Oc2ccccc2)cc1 [Dimethyl(4-phenoxyphenyl)(1H-1,2,4-triazol-1-ylmethyl)silane]	0	0	70	0	0	0	0	0	100	50	0					18
C[Si](Cn1cncn1)(c1ccccc1)c1ccccc1 [Methyldiphenyl(1H-1,2,4-triazol-1-ylmethyl)silane]	80	0	100		0	100	0	0	100	0	100		G	0		
C[Si](C)(Cn1cncn1)c1ccc(Oc2ccc(Cl)cc2)cc1 [[4-(4-Chlorophenoxy)phenyl]dimethyl(1H-1,2,4-triazol-1-ylmethyl)silane]	50	0	80	0			0	90	100	50	0					
